In patent US9879058B2, “Use of compounds that selectively modulate astrocytic release of substances through hemichannels of connexins and pannexins, without influencing gap junctions, for the treatment of psychiatric disorders” (Universidad Andres Bello, priority 2012, dated 2018):
Entries after “also recorded” stand apart in the source; their conditions may differ. Where two headings read alike, the source gives them in different places. No end group written: not given here.

How the values were obtained:
Cx43 gap junctions = target: T1, Cx43 gap junctions (Homo sapiens, UniProt P17302); test: Scrape-loading/dye transfer in Cx43 transfected Hela cells; format: cell-based
T1 construct: expressed in transfected cells; host or cells: HeLa
Experimental: Gap junction permeability was determined at room temperature using the scrape-loading/dye transfer (SL/DT) technique, Hela cells were incubated with Carboxy-fluorescin (1 mg/ml) in the same Ca2+ free HEPES-buffered salt solution as above, then the test compound was added, followed by scrape-loading, which was performed with a razor blade. After 3 minutes the cells are washed with HEPES-buffered salt solution and mounted in Fluoromount and examined by epifluorescence.
A. Animals: All procedures involving animals were in accordance to NIH guidelines and with approval of the bioethical committee of the Universidad Andrés Bello. Sprague Dowley rats (˜60 d old, ˜250 g) were caged individually at 22° C., 12/12 h light/dark cycle. The rats remained in their home box throughout the study, and were removed only briefly for drug microinfusions. B. Drugs: For intra hippocampal microinjections Gap19 ([…] (SEQ ID NO: 3), LifeTein, South Plainfield, N.J., USA, >90% purity) was dissolved in PBS to yield a final solution of 100 μM and cacotheline was dissolved in sterile saline to a final concentration of 10 μM. For intravenous injections, cacotheline was dissolved to a final concentration of 10 μM in the blood stream, assuming circulating blood as 7% of body weight. Cacotheline was injected into the caudal vein under 4% isofluorane gas anesthesia. In a control group of rats sterile saline injection of equal volume was injected. C. Dye uptake: Gap junction permeability was determined at room temperature using the scrape-loading/dye transfer (SL/DT) technique, Hela cells were incubated with Carboxy-fluorescin (1 mg/ml) in the same Ca2+ free HEPES-buffered salt solution as above, then the test compound was added, followed byscrape-loading, which was performed with a razor blade. After 3 minutes the cells are washed with HEPES-buffered salt solution and mounted in Fluoromount and examined by epifluorescence. […]

rats = test: Forced swim test (FST); format: in vivo, rat; details: intravenous, 10 μM in the blood stream, 10 minutes before the test
Experimental: A. Methods: To assess depressive-like symptoms the forced swim test (FST) was employed, which was similar to that described elsewhere^(65). On training, rats were individually placed in a transparent Plexiglas cylinder (30 cm diameter×60 cm height) filled with water at 25±2° C. for 15 minutes. 24 h later, the animals were placed again in the cylinder for 5 minutes as described before. After initial vigorous swimming activity, swimming attempts normally cease and the animal adopts a characteristic immobile floating posture. Rats were scored for time to reach immobility and total immobility time by a trained observer from offline video recordings. Immobility was defined as the cessation of limb movements. B. Drugs: Cacotheline was dissolved to a final concentration of 10 μM into the blood stream, assuming circulating blood as 7% of body weight. Cacotheline was injected into the caudal vein under 4% isofluorane gas anesthesia 10 minutes before the behavioural test. In a control group of rats sterile saline injection of equal volume was injected. C. […] D. Discussion: A compound capable of increasing Cx43 hemichannel activity was able to decrease immobility in the FST, indication antidepressant effects. […] This implies that Cx43 modulators are useful to treat depression and other mood disorders.

Sprague Dowley rats [1] = test: Openfield test; format: in vivo, rat; details: for time in the center of the openfield (thigmotaxis): cacotheline 10 μM
Experimental: A. Animals: All procedures involving animals were in accordance to NIH guidelines and with approval of the bioethical committee of the Universidad Andrés Bello. Sprague Dowley rats (˜60 d old, ˜250 g) were caged individually at 22° C., 12/12 h light/dark cycle. The rats remained in their home box throughout the study, and were removed only briefly for drug microinfusions. B. Drugs: For intra hippocampal microinjections Gap19 ([…] (SEQ ID NO: 3), LifeTein, South Plainfield, N.J., USA, >90% purity) was dissolved in PBS to yield a final solution of 100 μM and cacotheline was dissolved in sterile saline to a final concentration of 10 μM. For intravenous injections, cacotheline was dissolved to a final concentration of 10 μM in the blood stream, assuming circulating blood as 7% of body weight. Cacotheline was injected into the caudal vein under 4% isofluorane gas anesthesia. In a control group of rats sterile saline injection of equal volume was injected. C. Dye uptake: Gap junction permeability was determined at room temperature using the scrape-loading/dye transfer (SL/DT) technique, Hela cells were incubated with Carboxy-fluorescin (1 mg/ml) in the same Ca2+ free HEPES-buffered salt solution as above, then the test compound was added, followed byscrape-loading, which was performed with a razor blade. After 3 minutes the cells are washed with HEPES-buffered salt solution and mounted in Fluoromount and examined by epifluorescence. D. Apparatus: All behavioral essays were performed in an openfield made of Plexiglas (60 cm×40 cm) or a dark/light exploration box (70×40 cm; light compartment 40×40 cm, dark compartment 30×40 cm), illuminated by a white light bulb. A video camera was mounted at the top of the chamber to allow digital recording throughout the experiments. E. Surgery and histology: Under ketamine/xylazine anesthesia ([…], respectively), rats were stereotaxically implanted with bilateral 22-gauge stainless steel cannulas aimed 1.0 mm above the ventral hippocampus (5.0 mm posterior to Bregma, 5.0 mm lateral to the midline, and 6.0 mm ventral to the skull surface (Paxinos, G., Watson, C. (1998). The Rat Brain in Stereotaxic Coordinates; Press A, editor, San Diego). The cannulas were fixed with acrylic dental cement and secured by 4 skull screws. A stylus was placed inside the guide cannula to prevent clogging. Rats were given at least 7 days to recover before experimental procedures began.
In all experiments, stylus was removed from the guide cannula, and a 28-gauge injection cannula was inserted through the guide cannula, extending 1.0 mm beyond its tip into the ventral hippocampus. Drugs were infused slowly via the injection cannula, connected by PE20 tubing to Hamilton microsyringes driven by a microinfusion pump. Infusions were of 0.25 μl per hemisphere at a rate of 0.32 μl/min. Following drug infusion, injecting cannulaes were left in place for 10 minutes to allow drug diffusion away from the cannula tip. At the end of all experiments, animals were anesthetized as above and perfused intracardially with saline, 4% buffered paraformaldehyde. Brains were extracted and postfixed in 30% sucrose until density equaled that of sucrose. […] Animals with histological lesions beyond the size of the cannula tip and guide cannula diameter were excluded from the analysis.
F. Behavioral procedures: To assess the effects of TAT-Gap19 on locomotor activity, entire body movements were measured in the openfield and counted as the number of crossings (transitions) between virtual square subdivisions of 10 cm^2 measured offline from digital video recordings. Measures of anxiety included thigmotaxis, rearing activity in the openfield. Transitions between light and dark compartments, number of times the animal peaked from the dark compartment into the lit compartment, and time spent in the lit compartment were measured in the Dark/light box paradigm^(62, 63). G. Data Analysis: Data were expressed as Mean+SD. […]

Sprague Dowley rats [2] = test: Contextual fear conditioning after intravenous injection; format: in vivo, rat; details: 10 minutes before training, 10 μM in the blood stream
Experimental: A. Animals: All procedures involving animals were in accordance to NIH guidelines. Sprague Dowley rats (˜60 d old, ˜250 g) were caged individually at 22° C., 12/12 h light/dark cycle. The rats remained in their home box throughout the study, and were removed only briefly for drug microinfusions. B. Drugs: Cacotheline (Pharmeks Ltd. Moscow, Russia) was dissolved in sterile saline to yield a final solution of 10 μM in the blood stream. As a control, only sterile saline injection of equal volume was used. Cacotheline was injected into the caudal vein under 4% isofluorane anesthesia. C. Apparatus: All behavioral essays were performed in a sound attenuating cubicle. Conditioning and testing were conducted in the same chamber. For conditioning, rats were placed in a Plexiglas chamber with a metal grid floor (40 cm×40 cm×40 cm). The chamber was dimly illuminated by a red light. A video camera was mounted at the top of each chamber to allow digital recording throughout the experiments. D. Behavioral procedures: The conditioning is based on the animal learning that a previously neutral stimulus (a conditioned stimulus, CS; e.g. a context) becomes predictive of a stressful stimulus (unconditioned stimulus, US; e.g. footshock). […] During the test, total seconds of freezing (immobility) were calculated for each rat when exposed to the conditioned context for 5 minutes without the footshock. […]

Cx30 hemichannels = target: T2, Cx30 hemichannels (Homo sapiens, UniProt O95452); test: EthBr dye uptake in Cx30 transfected Hela cells; format: cell-based
T2 construct: expressed in transfected cells; host or cells: HeLa
Experimental: For visualization of dye uptake by captured images, Cx30 transfected Hela cells were exposed to 25 uM EthBr (Invitrogen, Eugene, Oreg.) for 5 min at room temperature. Then, cells were incubated with either HEPES-buffered salt solution containing 140 mM NaCl, 4 mM KCl, 1 mM CaCl2, 1 mM MgCl2, 5 mM glucose, […] or in calcium free HEPES-buffered salt solution (140 mM NaCl, 4 mM KCl, 5 mM glucose, […]). Then the test compound was added to both solutions followed by EthBr dissolved to a final 25 uM concentration. Cells are washed and mounted in Fluoromount and examined by epifluorescence.

Cx30 gap junctions = test: Scrape-loading/dye transfer, Cx30 gap junctions in Hela cells; format: cell-based
Experimental: Gap junction permeability was determined at room temperature using the scrape-loading/dye transfer (SL/DT) technique, Hela cells were incubated with Carboxy-fluorescin (1 mg/ml) in the same Ca2+ free HEPES-buffered salt solution as above. Then the test compound was added. Scrape-loading was then performed with a razor blade. After 3 minutes the cells are washed with HEPES-buffered salt solution and mounted in Fluoromount and examined by epifluorescence.

[3] = microinjected into ventral hippocampus
[4] = microinjected into ventral hippocampus, peptides 100 μM

T1 sequence (P17302 whole entry): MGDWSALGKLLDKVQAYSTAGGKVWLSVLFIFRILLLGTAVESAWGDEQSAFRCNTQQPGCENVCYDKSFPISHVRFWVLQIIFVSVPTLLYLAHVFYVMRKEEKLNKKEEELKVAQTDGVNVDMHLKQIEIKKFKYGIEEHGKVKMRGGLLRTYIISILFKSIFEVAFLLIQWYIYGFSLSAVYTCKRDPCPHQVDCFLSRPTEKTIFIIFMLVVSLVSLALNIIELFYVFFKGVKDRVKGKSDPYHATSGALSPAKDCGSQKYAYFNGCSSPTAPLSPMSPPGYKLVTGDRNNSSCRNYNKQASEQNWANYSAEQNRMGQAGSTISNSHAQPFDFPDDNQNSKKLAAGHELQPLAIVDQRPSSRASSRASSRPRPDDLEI
T2 sequence (O95452 whole entry): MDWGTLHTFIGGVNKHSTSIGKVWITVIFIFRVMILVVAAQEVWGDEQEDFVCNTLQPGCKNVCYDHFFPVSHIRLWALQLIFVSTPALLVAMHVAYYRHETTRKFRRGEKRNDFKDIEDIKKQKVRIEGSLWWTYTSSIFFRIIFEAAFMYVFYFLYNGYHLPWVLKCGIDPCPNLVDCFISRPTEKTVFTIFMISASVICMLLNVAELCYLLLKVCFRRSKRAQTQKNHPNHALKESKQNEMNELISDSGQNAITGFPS

| Compound | Cx43 gap junctional coupling (Cx43 gap junctions) | Cx43 gap junctional coupling (Cx43 gap junctions; listed as cacotheline) | immobility in the FST (rats) | locomotion (transitions) in the openfield (Sprague Dowley rats [1]; intravenous, 10 μM in the blood stream) | effect on anxiety (Sprague Dowley rats [1]; [3]) | time in the center of the openfield (thigmotaxis) (Sprague Dowley rats [1]; [4]) | time in the center of the openfield (thigmotaxis) (Sprague Dowley rats [1]; microinjected into ventral hippocampus, peptides 100 μM, listed as cacotheline) | freezing to conditioned context 24 h after training (Sprague Dowley rats [2]) | freezing to conditioned context 24 h after training (Sprague Dowley rats [2]; listed as cacotheline) | locomotion (transitions) in the openfield (Sprague Dowley rats [1]; [4]) | Cx30 hemichannel activity (Cx30 hemichannels) | Cx30 gap junctional communication (Cx30 gap junctions) | locomotion (transitions) in the openfield (Sprague Dowley rats [1]; microinjected into ventral hippocampus, peptides 100 μM, listed as Pnx1Li) |
| --- | --- | --- | --- | --- | --- | --- | --- | --- | --- | --- | --- | --- | --- |
| O=C(O)C[C@@H]1OCC=C2CN3CC[C@]45C6=CC(=O)C(=O)C([N+](=O)[O-])=C6N[C@H]4[C@H]1[C@H]2C[C@H]35 [Cacotheline, 2,3-Dihydro-4-nitro-2,3-dioxo-9,10-secostrychnidin-10-oic acid] | had no effects on Cx43 gap junctional coupling; also recorded: without affecting Cx43 gap junctions | no effects on gap junctional coupling | significant decrease in immobility time | increase in locomotion at the openfield; also recorded: increase in total locomotion | anxiolytic effects | significant increase in the time spent in the center of the openfield | increase in time at the center of the openfield | increased freezing | increase freezing | – | – | – | – |
| WRQAAFVDSY [Pnx1] | – | – | – | – | anxiolytic effects | increase in time at the center of the openfield; also recorded: increasing significantly the time in the center of the openfield | – | – | – | increasing significantly | – | – | – |
| YGRKKRRQRRRCYDHFFPVSHIR [TAT-Cx30] | had no effects on Cx43 gap junctional coupling | – | – | – | anxiolytic effects | increase in time at the center of the openfield | – | – | – | increase in locomotion at the openfield | increase in Cx30 hemichannel activity | – | – |
| YGRKKRRQRRRDAPALYSNLSKKRG [TAT-Cx30L4] | – | – | – | – | anxiolytic effects | statistically significant increase in the time the animals spent in the center | – | – | – | tendency to increase locomotion | increase hemichannel activity | unaffected | – |
| YGRKKRRQRRRRDLDLRDGP [TAT-Pnx1L5, pannexin 1 mimetic peptide] | – | – | – | – | anxiolytic effects | increasing significantly the time in the center of the openfield | – | – | – | increased locomotion at the openfield | – | – | increasing significantly |
